Results: US10954219B2, “1,3-benzodioxole derivative” (DAIICHI SANKYO COMPANY, LIMITED, priority 2014, dated 2021)

Tests used:
[1] = system: Intracellular H3K27me3 in HCT116 cells; experiment: Intracellular H3K27me3 inhibitory activity evaluation; assay type: cell-based; settings: Homo sapiens, HCT-116, 72 h, 3 days, AlphaLISA, read-out: Test Example 3 H3K27me3 inhibition (HCT116) IC50
PRC2-EZH2 (WT EZH2) = biological target: T1, PRC2-EZH2 (WT EZH2) (Homo sapiens, UniProt Q15910); experiment: EZH2 methyltransferase inhibitory activity evaluation; assay type: biochemical; settings: PRC2-EZH2, biotin-H3 peptide, 3H-SAM, 2 hours
T1 construct: made in house

PRC2-EZH1 (WT EZH1) = PRC2-EZH1 (WT EZH1) (Homo sapiens, UniProt Q92800); experiment: EZH1 methyltransferase inhibitory activity evaluation
Sequence of PRC2-EZH1 (WT EZH1) (Q92800 whole entry): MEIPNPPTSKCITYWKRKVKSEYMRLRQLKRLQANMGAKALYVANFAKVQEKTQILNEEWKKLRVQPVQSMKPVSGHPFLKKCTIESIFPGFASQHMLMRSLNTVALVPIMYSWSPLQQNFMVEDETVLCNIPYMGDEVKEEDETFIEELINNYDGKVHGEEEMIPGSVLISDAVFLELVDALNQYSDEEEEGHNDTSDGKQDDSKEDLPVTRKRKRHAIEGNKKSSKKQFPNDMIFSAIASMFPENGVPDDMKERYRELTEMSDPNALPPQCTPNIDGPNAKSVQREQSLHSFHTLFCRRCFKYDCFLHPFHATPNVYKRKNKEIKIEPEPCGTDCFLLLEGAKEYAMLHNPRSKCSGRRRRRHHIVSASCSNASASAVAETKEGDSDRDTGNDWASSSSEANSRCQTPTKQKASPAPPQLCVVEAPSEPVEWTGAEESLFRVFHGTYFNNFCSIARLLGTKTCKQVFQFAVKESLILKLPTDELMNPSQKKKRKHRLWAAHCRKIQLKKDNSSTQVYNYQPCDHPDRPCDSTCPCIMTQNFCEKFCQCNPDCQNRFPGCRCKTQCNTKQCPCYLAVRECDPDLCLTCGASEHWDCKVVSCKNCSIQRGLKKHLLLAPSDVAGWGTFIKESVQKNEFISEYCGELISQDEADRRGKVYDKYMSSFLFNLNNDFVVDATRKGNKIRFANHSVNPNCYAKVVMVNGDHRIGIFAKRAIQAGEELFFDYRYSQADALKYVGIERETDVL
Sequence of PRC2-EZH1 (WT EZH1) (O75530 whole entry partner): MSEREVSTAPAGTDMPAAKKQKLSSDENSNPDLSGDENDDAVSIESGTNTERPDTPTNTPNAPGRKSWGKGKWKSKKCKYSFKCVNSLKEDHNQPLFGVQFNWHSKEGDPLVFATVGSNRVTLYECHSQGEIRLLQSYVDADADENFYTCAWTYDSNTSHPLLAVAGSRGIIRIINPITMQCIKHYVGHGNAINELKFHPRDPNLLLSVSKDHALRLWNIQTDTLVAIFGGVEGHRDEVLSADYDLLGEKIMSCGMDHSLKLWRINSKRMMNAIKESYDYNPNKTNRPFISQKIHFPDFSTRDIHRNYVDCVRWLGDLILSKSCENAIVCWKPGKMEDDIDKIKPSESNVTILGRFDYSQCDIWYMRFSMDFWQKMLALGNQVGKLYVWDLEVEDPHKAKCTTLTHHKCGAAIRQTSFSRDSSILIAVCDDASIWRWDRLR
Sequence of PRC2-EZH1 (WT EZH1) (Q15022 whole entry partner): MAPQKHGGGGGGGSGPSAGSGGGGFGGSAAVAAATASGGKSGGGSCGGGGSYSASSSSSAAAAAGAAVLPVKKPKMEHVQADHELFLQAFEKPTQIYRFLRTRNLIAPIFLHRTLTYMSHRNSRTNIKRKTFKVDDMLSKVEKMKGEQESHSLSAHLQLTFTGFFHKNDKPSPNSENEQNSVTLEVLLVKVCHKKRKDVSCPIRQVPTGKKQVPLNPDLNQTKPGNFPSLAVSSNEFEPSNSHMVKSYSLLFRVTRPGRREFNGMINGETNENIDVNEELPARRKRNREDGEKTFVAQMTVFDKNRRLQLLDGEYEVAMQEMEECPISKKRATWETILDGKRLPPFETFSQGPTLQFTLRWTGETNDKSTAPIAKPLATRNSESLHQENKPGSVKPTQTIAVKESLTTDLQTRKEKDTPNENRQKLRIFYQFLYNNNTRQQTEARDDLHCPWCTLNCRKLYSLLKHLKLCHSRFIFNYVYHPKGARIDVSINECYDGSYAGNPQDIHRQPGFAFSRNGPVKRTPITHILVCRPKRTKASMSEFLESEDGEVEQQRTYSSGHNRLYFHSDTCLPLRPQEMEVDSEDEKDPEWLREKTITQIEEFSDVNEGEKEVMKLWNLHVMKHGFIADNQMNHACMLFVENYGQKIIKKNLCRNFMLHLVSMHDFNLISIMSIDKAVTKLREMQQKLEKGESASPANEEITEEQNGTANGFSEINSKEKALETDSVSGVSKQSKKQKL
Sequence of PRC2-EZH1 (WT EZH1) (Q09028 whole entry partner): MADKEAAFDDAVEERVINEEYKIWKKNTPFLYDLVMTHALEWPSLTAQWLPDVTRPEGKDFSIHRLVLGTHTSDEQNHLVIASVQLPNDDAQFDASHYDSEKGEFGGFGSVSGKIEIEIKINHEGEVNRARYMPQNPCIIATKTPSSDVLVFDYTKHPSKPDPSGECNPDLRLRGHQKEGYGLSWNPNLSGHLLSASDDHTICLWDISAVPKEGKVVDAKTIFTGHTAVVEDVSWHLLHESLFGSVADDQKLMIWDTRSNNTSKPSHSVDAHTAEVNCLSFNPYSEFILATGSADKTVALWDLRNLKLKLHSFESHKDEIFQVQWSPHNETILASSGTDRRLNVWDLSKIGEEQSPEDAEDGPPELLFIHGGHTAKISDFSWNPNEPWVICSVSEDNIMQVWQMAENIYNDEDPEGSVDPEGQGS
Sequence of PRC2-EZH1 (WT EZH1) (Q6ZN18 whole entry partner): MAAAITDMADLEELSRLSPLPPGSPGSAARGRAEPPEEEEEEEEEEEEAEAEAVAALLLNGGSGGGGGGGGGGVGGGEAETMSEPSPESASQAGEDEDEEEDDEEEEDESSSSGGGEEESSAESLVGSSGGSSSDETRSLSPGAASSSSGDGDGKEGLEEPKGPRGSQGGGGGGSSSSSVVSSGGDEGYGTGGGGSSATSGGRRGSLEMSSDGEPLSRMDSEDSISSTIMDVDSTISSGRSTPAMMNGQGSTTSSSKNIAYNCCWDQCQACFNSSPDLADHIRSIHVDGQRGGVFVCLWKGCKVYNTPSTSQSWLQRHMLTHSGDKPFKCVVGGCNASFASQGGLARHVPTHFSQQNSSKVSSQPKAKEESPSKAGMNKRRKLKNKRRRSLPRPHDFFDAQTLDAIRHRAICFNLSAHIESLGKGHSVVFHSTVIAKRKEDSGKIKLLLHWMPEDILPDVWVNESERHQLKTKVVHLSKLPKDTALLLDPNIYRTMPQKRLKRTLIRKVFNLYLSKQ

T1 sequence (Q15910 whole entry): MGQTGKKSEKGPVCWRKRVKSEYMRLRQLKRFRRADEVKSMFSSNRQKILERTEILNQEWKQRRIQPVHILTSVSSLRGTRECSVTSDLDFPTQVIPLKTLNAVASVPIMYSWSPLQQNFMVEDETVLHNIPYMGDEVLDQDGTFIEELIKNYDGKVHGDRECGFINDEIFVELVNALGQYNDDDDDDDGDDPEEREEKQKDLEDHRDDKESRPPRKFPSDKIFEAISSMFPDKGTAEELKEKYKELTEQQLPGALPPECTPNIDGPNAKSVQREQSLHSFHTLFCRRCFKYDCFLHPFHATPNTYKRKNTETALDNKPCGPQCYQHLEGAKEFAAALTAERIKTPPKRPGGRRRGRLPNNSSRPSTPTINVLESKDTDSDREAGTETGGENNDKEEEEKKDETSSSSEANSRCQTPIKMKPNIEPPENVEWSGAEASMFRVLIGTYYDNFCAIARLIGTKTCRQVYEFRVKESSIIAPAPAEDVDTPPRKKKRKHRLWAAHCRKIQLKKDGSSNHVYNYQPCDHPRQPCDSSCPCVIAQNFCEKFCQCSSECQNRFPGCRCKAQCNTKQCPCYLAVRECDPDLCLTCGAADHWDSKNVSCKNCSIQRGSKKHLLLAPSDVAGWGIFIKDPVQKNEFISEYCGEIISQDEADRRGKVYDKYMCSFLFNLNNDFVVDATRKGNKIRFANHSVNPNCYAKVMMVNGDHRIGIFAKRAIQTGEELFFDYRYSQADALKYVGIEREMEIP
T1 sequence (O75530 whole entry partner): as the sequence (O75530 whole entry partner) above
T1 sequence (Q15022 whole entry partner): as the sequence (Q15022 whole entry partner) above

SMILES | IC50 [1] | IC50 (PRC2-EZH2 (WT EZH2)) | IC50 (PRC2-EZH1 (WT EZH1))
CCc1cc(C(=O)NCc2c(C)cc(C)[nH]c2=O)c(C)c2c1OC(C)([C@H]1CC[C@H](N(C)C)CC1)O2 (relative stereo) [Example 76, 2-[trans-4-(Dimethylamino)cyclohexyl]-N-[(4,6-dimethyl-2-oxo-1,2-dihydropyridin-3-yl)methyl]-7-ethyl-2,4-dimethyl-1,3-benzodioxole-5-carboxamide] | 0.00088 µM | 0.012 µM | 0.02 µM
Cc1cc(C)c(CNC(=O)c2cc(C)c3c(c2C)O[C@@](C)([C@H]2CC[C@H](N(C)C)CC2)O3)c(=O)[nH]1 (single isomer, unassigned) [Example 48] | 0.00048 µM | 0.008 µM | 0.0089 µM
Cc1cc(C)c(CNC(=O)c2cc(Br)c3c(c2C)OC(C)(C2CCOC2)O3)c(=O)[nH]1 (stereo not drawn) [Example 1, 7-Bromo-N-[(4,6-dimethyl-2-oxo-1,2-dihydropyridin-3-yl)methyl]-2,4-dimethyl-2-(tetrahydrofuran-3-yl)-1,3-benzodioxole-5-carboxamide] | 0.029 µM | 0.024 µM | 0.14 µM
Cc1cc(C)c(CNC(=O)c2cc(Br)c3c(c2C)OC(C)(C24CC(N(C)C)(C2)C4)O3)c(=O)[nH]1 (stereo not drawn) [Example 3, 7-Bromo-2-[3-(dimethylamino)-1-bicyclo[1.1.1]pentanyl]-N-[(4,6-dimethyl-2-oxo-1,2-dihydropyridin-3-yl)methyl]-2,4-dimethyl-1,3-benzodioxole-5-carboxamide] | 0.026 µM | 0.03 µM | 0.66 µM
Cc1cc(C)c(CNC(=O)c2cc(Br)c3c(c2C)OC(C)(C2CC4(CC(N(C)C)C4)C2)O3)c(=O)[nH]1 (stereo not drawn) [Example 4, 7-Bromo-2-[2-(dimethylamino)spiro[3.3]heptan-6-yl]-N-[(4,6-dimethyl-2-oxo-1,2-dihydropyridin-3-yl)methyl]-2,4-dimethyl-1,3-benzodioxole-5-carboxamide] | 0.0083 µM | 0.025 µM | 0.13 µM
CCN1CC2(CC(C3(C)Oc4c(Br)cc(C(=O)NCc5c(C)cc(C)[nH]c5=O)c(C)c4O3)C2)C1 (stereo not drawn) [Example 5, 7-Bromo-N-[(4,6-dimethyl-2-oxo-1,2-dihydropyridin-3-yl)methyl]-2-(2-ethyl-2-azaspiro[3.3]heptan-6-yl)-2,4-dimethyl-1,3-benzodioxole-5-carboxamide] | 0.051 µM | 0.015 µM | 0.25 µM
CCN1CCC([C@@]2(C)Oc3c(Br)cc(C(=O)NCc4c(C)cc(C)[nH]c4=O)c(C)c3O2)CC1 [Example 7, (2R)-7-Bromo-N-[(4,6-dimethyl-2-oxo-1,2-dihydropyridin-3-yl)methyl]-2-(1-ethyl-4-piperidyl)-2,4-dimethyl-1,3-benzodioxole-5-carboxamide] | 0.0084 µM | 0.0036 µM | 0.038 µM
COCCN1CCC([C@@]2(C)Oc3c(Br)cc(C(=O)NCc4c(C)cc(C)[nH]c4=O)c(C)c3O2)CC1 [Example 10, (2R)-7-Bromo-N-[(4,6-dimethyl-2-oxo-1H-pyridin-3-yl)methyl]-2-[l-(2-methoxyethyl)-4-piperidyl]-2,4-dimethyl-1,3-benzodioxole-5-carboxamide] | 0.018 µM | 0.011 µM | 0.13 µM
CCCc1cc(C)[nH]c(=O)c1CNC(=O)c1cc(Br)c2c(c1C)O[C@@](C)(C1CCN(CC)CC1)O2 [Example 12, (2R)-7-Bromo-2-(1-ethyl-4-piperidyl)-2,4-dimethyl-N-[(6-methyl-2-oxo-4-propyl-1,2-dihydropyridin-3-yl)methyl]-1,3-benzodioxole-5-carboxamide] | 0.14 µM | 0.028 µM | 0.2 µM
Cc1cc(C)c(CNC(=O)c2cc(Cl)c3c(c2C)OC(C)(C2CC4(CC(N(C)C)C4)C2)O3)c(=O)[nH]1 (stereo not drawn) [Example 30, 7-Chloro-2-[2-(dimethylamino)spiro[3.3]heptan-6-yl]-N-[(4,6-dimethyl-2-oxo-1,2-dihydropyridin-3-yl)methyl]-2,4-dimethyl-1,3-benzodioxole-5-carboxamide] | 0.016 µM | 0.021 µM | 0.18 µM
CCN1CCC([C@@]2(C)Oc3c(Cl)cc(C(=O)NCc4c(C)cc(C)[nH]c4=O)c(C)c3O2)CC1 [Example 31, (2R)-7-Chloro-N-[(4,6-dimethyl-2-oxo-1,2-dihydropyridin-3-yl)methyl]-2-(1-ethyl-4-piperidyl)-2,4-dimethyl-1,3-benzodioxole-5-carboxamide] | 0.009 µM | 0.018 µM | 0.11 µM
Cc1cc(C)c(CNC(=O)c2cc(Cl)c3c(c2C)OC(C)([C@@H]2CC[C@@H](N(C)C)CO2)O3)c(=O)[nH]1 (stereo partly drawn) [Example 38, 7-Chloro-2-[(2S,5R)-5-(dimethylamino)tetrahydropyran-2-yl]-N-[(4,6-dimethyl-2-oxo-1,2-dihydropyridin-3-yl)methyl]-2,4-dimethyl-1,3-benzodioxole-5-carboxamide] | 0.0028 µM | 0.012 µM | 0.057 µM
COc1cc(C)[nH]c(=O)c1CNC(=O)c1cc(Cl)c2c(c1C)OC(C)([C@@H]1CC[C@@H](N(C)C)CO1)O2 (stereo partly drawn) [Example 39, 7-Chloro-2-[(2S,5R)-5-(dimethylamino)tetrahydropyran-2-yl]-N-[(4-methoxy-6-methyl-2-oxo-1,2-dihydropyridin-3-yl)methyl]-2,4-dimethyl-1,3-benzodioxole-5-carboxamide] | 0.0022 µM | 0.014 µM | 0.04 µM
Cc1cc(C)c(CNC(=O)c2cc(C)c3c(c2C)OC(C)([C@@H]2CC[C@@H](N(C)C)CO2)O3)c(=O)[nH]1 (stereo partly drawn) [Example 49, 2-[(2S,5R)-5-(Dimethylamino)tetrahydropyran-2-yl]-N-[(4,6-dimethyl-2-oxo-1,2-dihydropyridin-3-yl)methyl]-2,4,7-trimethyl-1,3-benzodioxole-5-carboxamide] | 0.0026 µM | 0.018 µM | 0.092 µM

Continued, values first:

IC50 [1] | IC50 (PRC2-EZH2 (WT EZH2)) | IC50 (PRC2-EZH1 (WT EZH1)) | SMILES
0.045 µM | 0.039 µM | 0.51 µM | Cc1cc(C)c(CNC(=O)c2cc(Br)c3c(c2C)OC(C)(C2CCN(C)C2)O3)c(=O)[nH]1 (stereo not drawn) [Example 6, 7-Bromo-N-[(4,6-dimethyl-2-oxo-1,2-dihydropyridin-3-yl)methyl]-2,4-dimethyl-2-(1-methylpyrrolidin-3-yl)-1,3-benzodioxole-5-carboxamide]
0.006 µM | 0.016 µM | 0.097 µM | Cc1cc(C)c(CNC(=O)c2cc(Br)c3c(c2C)O[C@@](C)(C2CCN(C)CC2)O3)c(=O)[nH]1 [Example 8, (2R)-7-Bromo-N-[(4,6-dimethyl-2-oxo-1,2-dihydropyridin-3-yl)methyl]-2,4-dimethyl-2-(1-methyl-4-piperidyl)-1,3-benzodioxole-5-carboxamide]
0.045 µM | 0.012 µM | 0.11 µM | Cc1cc(C)c(CNC(=O)c2cc(Br)c3c(c2C)OC(C)(CC2CCN(C)CC2)O3)c(=O)[nH]1 (stereo not drawn) [Example 25, 7-Bromo-N-[(4,6-dimethyl-2-oxo-1,2-dihydropyridin-3-yl)methyl]-2,4-dimethyl-2-[(1-methyl-4-piperidyl)methyl]-1,3-benzodioxole-5-carboxamide]
0.037 µM | 0.023 µM | 0.19 µM | CCN1CCC(CC2(C)Oc3c(Br)cc(C(=O)NCc4c(C)cc(C)[nH]c4=O)c(C)c3O2)CC1 (stereo not drawn) [Example 26, 7-Bromo-N-[(4,6-dimethyl-2-oxo-1,2-dihydropyridin-3-yl)methyl]-2-[(1-ethyl-4-piperidyl)methyl]-2,4-dimethyl-1,3-benzodioxole-5-carboxamide]
0.016 µM | 0.0094 µM | 0.068 µM | Cc1cc(C)c(CNC(=O)c2cc(Br)c3c(c2C)O[C@@](C)(CO[C@H]2CCN(C)C2)O3)c(=O)[nH]1 [Example 29, (2R)-7-Bromo-N-[(4,6-dimethyl-2-oxo-1,2-dihydropyridin-3-yl)methyl]-2,4-dimethyl-2-[[(3S)-1-methylpyrrolidin-3-yl]oxymethyl]-1,3-benzodioxole-5-carboxamide]
0.032 µM | 0.011 µM | 0.21 µM | Cc1cc(C)c(CNC(=O)c2cc(Cl)c3c(c2C)OC(C)(CC2CCN(C)CC2)O3)c(=O)[nH]1 (stereo not drawn) [Example 40, 7-Chloro-N-[(4,6-dimethyl-2-oxo-1,2-dihydropyridin-3-yl)methyl]-2,4-dimethyl-2-[(1-methyl-4-piperidyl)methyl]-1,3-benzodioxole-5-carboxamide]
0.067 µM | 0.027 µM | 0.19 µM | Cc1cc(C)c(CNC(=O)c2cc(Br)c3c(c2C)OC(C)(CN2CCNCC2)O3)c(=O)[nH]1 (stereo not drawn) [Example 42, 7-Bromo-N-[(4,6-dimethyl-2-oxo-1,2-dihydropyridin-3-yl)methyl]-2,4-dimethyl-2-(piperazin-1-ylmethyl)-1,3-benzodioxole-5-carboxamide]
0.044 µM | 0.041 µM | 0.38 µM | Cc1cc(C)c(CNC(=O)c2cc(Br)c3c(c2C)OC(C)(CN2CCN(C)CC2)O3)c(=O)[nH]1 (stereo not drawn) [Example 43, 7-Bromo-N-[(4,6-dimethyl-2-oxo-1,2-dihydropyridin-3-yl)methyl]-2,4-dimethyl-2-[(4-methylpiperazin-1-yl)methyl]-1,3-benzodioxole-5-carboxamide]
0.014 µM | 0.0079 µM | 0.077 µM | Cc1cc(C)c(CNC(=O)c2cc(Br)c3c(c2C)OC(C)(CN2CCC(N(C)C)CC2)O3)c(=O)[nH]1 (stereo not drawn) [Example 44, 7-Bromo-2-[[4-(dimethylamino)-1-piperidyl]methyl]-N-[(4,6-dimethyl-2-oxo-1,2-dihydropyridin-3-yl)methyl]-2,4-dimethyl-1,3-benzodioxole-5-carboxamide]
0.013 µM | 0.0096 µM | 0.11 µM | Cc1cc(C)c(CNC(=O)c2cc(Br)c3c(c2C)O[C@@](C)(CN2CCOCC2)O3)c(=O)[nH]1 [Example 45, (2R)-7-Bromo-N-[(4,6-dimethyl-2-oxo-1,2-dihydropyridin-3-yl)methyl]-2,4-dimethyl-2-(morpholinomethyl)-1,3-benzodioxole-5-carboxamide]
